{"source": "patent US10544138B2", "about": "“Tricyclic kinase inhibitors of MELK and methods of use” (Dana-Farber Cancer Institute, Inc., priority 2015, dated 2020)", "data": [{"target": "T1, MELK (Homo sapiens, UniProt Q14680)", "T1 sequence (Q14680 whole entry)": "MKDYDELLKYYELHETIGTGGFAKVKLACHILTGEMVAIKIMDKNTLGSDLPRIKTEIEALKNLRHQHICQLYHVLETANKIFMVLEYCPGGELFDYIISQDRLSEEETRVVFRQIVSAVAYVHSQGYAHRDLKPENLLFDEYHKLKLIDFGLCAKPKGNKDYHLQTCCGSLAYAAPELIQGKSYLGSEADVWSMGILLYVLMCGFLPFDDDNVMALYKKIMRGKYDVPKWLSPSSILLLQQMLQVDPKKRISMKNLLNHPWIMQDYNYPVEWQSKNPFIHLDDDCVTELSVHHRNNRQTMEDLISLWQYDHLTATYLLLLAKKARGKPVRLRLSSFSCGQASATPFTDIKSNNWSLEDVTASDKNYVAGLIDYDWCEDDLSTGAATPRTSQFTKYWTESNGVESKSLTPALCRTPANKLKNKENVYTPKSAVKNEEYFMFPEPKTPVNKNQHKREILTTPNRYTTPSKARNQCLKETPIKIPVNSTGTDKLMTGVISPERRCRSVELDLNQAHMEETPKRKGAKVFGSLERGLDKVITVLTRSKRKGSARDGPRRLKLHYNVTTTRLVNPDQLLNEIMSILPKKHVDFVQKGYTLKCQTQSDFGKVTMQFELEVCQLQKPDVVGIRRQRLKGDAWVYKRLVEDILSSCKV", "assay": "Electrophoretic mobility (auto-phosphorylation) of MELK in nocodazole-arrested mitotic cells, immunoblotting", "assay_type": "cell-based", "settings": "nocodazole-arrested mitotic cells (HeLa, MDA-MB-231), 30 min, increasing concentration", "protocol": "[…] assays were performed with recombinant protein of the indicated mitotic kinase (left) and AMPK family kinases (right) in the presence of THZ-4-63-1. […] Cells were treated with nocodazole (100 ng/ml) for 18 h or not treated (Asyn., asynchronous). Nocodazole-arrested mitotic cells (M) were isolated via shake-off. The attached cells enriched in G2 phase (G2) were harvested. A portion of the mitotic cells were washed off nocodazole and released into G1 phase after 4 hours of incubation (G1). […] In Panel D, mitotic lysates were prepared from the indicated cells, and treated with λ-phosphatase at 30° C. In Panel E, nocodazole-arrested mitotic cells were treated with increasing concentration of THZ-4-63-1 for 30 min. Cell lysates were subjected to immunoblotting.\n(§1) Cell lysates were subjected to immunoblotting. […] The fluorescent signals of immunblotting were quantified using Image Studio Lite software (Licor Biosciences, Lincoln, Neb.). The signal of phosphorylated Aurora kinases was normalized to that of loading control (α-tubulin).\n(§2) We next proceeded to test if THZ-4-63-1 inhibits MELK activity in vivo. With a lack of established kinase substrates of MELK during mitosis, we used the auto-phosphorylation of MELK as a surrogate to indicate the activity of MELK. […] We then harvested nocodazole-arrested mitotic cells, and treated cells with increasing concentrations of THZ-4-63-1.", "values": [{"molecule": "O=C(O)c1ccc(Nc2ncc3c(n2)-c2ccc(Cl)cc2C(c2c(F)cccc2F)=NC3)cc1", "note": "[MLN8054, reference compound]", "Electrophoretic mobility of mitotic MELK": "does not alter the electrophoretic mobility of MELK"}, {"molecule": "O=C1NC(=NCc2cccs2)S/C1=C\\c1ccc2ncccc2c1", "note": "[RO-3306, reference compound]", "Electrophoretic mobility of mitotic MELK": "does not change the electrophoretic mobility of MELK"}]}, {"system": "Aurora kinases", "assay": "Aurora kinase phosphorylation in mitotic cells, immunoblotting", "assay_type": "cell-based", "settings": "30 min", "protocol": "as §1\nCell lysates were prepared for immunoblotting. In Panels B and C, THZ-4-63-1 inhibits H3T3 phosphorylation in HeLa (B) and U2OS (C) cells. Nocodazole arrested mitotic cells were treated with THZ-4-63-1 at the indicated doses for 30 min. […] Cell lysates were subjected to immunblotting. The signal of H3T3 phosphorylation was normalized to that of α-tubulin (right).\nas §2\nWe exposed paclitaxel- or nocodazole-arrested mitotic cells to the individual inhibitor for 30 min in the presence of MG132, and collected lysates for examining signaling involved in chromosome alignment. […] Recent studies unravel a novel role of Aurora B in phosphorylating Haspin^7, a major factor responsible for phosphorylating Histone H3 at Thr3^14. […]", "values": [{"molecule": "Cc1cc(Nc2cc(N3CCN(C)CC3)nc(Sc3ccc(NC(=O)C4CC4)cc3)n2)n[nH]1", "note": "[VX-680, reference compound]", "Phosphorylation of Aurora kinases": "efficiently suppressed the auto-phosphorylation of Aurora kinases"}]}, {"system": "Histone H3 phosphorylation at Thr3", "assay": "Histone H3 Thr3 phosphorylation in arrested mitotic cells, immunoblotting", "assay_type": "cell-based", "settings": "paclitaxel- or nocodazole-arrested mitotic cells, 30 min, with MG132", "protocol": "Cell lysates were prepared for immunoblotting. […] HeLa cells were treated with DMSO or THZ-4-63-1 (5 μM) for 4 h followed by 1 h treatment of MG132 (10 μM). Cells were fixed and stained with anti-H3T3ph and anti-CREST. […] Cells were treated as in FIG. 2, Panel D, and additionally treated with MG132 (10 μM) for 1 h before fixation. The histogram indicates the quantification of H3S10ph signal. […] MCF-10A cells stably expressing empty vector (EV) or MELK were fixed for immunostaining. Images were captured with identical exposure time. H3T3ph intensity was quantified by the use of ImageJ. […] Recombinant MELK protein (kinase domain) was incubated with recombinant Histone H3 for 30 min at 30° C. Samples were subjected to immunoblotting using the indicated antibodies. […] Cells stably expressing GFP-MELK were fixed by formaldehyde and stained with anti-H3S10ph. […] Asynchronized (Async.) or nocodazole-arrested mitotic cells were subjected to fractionation, with sample prepared for immunoblotting. Panels H and I are images showing that MELK inhibition impairs the localization of chromosome passenger complex (CPC), indicated by the immunofluorescence detecting Survivin (G) and Aurora B (H). In addition to the presence of doxycyclin or THZ-4-63-1, cells were treated with nocodazole (0.33 μM) and MG132 (10 μM) for 3 h before fixation.\nCell lysates were prepared for immunoblotting. […]", "values": [{"molecule": "Cc1cc(Nc2cc(N3CCN(C)CC3)nc(Sc3ccc(NC(=O)C4CC4)cc3)n2)n[nH]1", "note": "[VX-680, reference compound]", "Histone H3 phosphorylation at Thr3": "inhibition of the downstream Histone H3 phosphorylation at Thr3"}]}, {"system": "MDA-MB-468", "assay": "Cell growth with paclitaxel combination in MDA-MB-468", "assay_type": "cell-based, human", "settings": "2 nM", "protocol": "Mitotic cells were treated with THZ-4-63-1 at indicated concentrations for 4 h. Cells were collected for immunoblotting. Panel B contains time-lapse images of U2OS-(H2B-GFP) cells treated with THZ-4-63-1 (5 μM). […] Panel C contains blots showing proteasome-mediated degradation of Cyclin B1, Aurora B and MELK in THZ-4-63-1-induced mitotic slippage. Mitotic cells were treated as in Panel A with THZ-4-63-1 (5 μM), or MG132 (10 μM), or both for 4 h. Panel D contains a graph showing quantification of cell proliferation in the indicated breast cancer cell lines, which were treated with vehicle control or THZ-4-63-1 for one week (Top) and also contains bright-field images acquired from control cells or cells treated with THZ-4-63-1 (111 nM) (Bottom). […] Cells were treated with indicated drugs, and harvested in ten days for quantification of cell growth. The bold curve depicts the theoretic prediction of an additive action between paclitaxel and THZ-4-63-1.\nBecause microtubule-targeting chemotherapy is the mainstay of treatment for many types of cancer including basal-like breast cancer, we asked if MELK inhibition could combine with drugs that impair microtubule dynamics. […]", "values": [{"molecule": "CC(=O)O[C@H]1C(=O)[C@@]2(C)[C@H]([C@H](OC(=O)c3ccccc3)[C@]3(O)C[C@H](OC(=O)[C@H](O)[C@@H](NC(=O)c4ccccc4)c4ccccc4)C(C)=C1C3(C)C)[C@]1(OC(C)=O)CO[C@@H]1C[C@@H]2O", "note": "[paclitaxel, reference compound]", "Reduction of cell proliferation, paclitaxel alone": "half reduction"}]}, {"target": "T1, MELK", "assay": "Z′-LYTE biochemical assay, MELK inhibition", "parameters": "purchased Life Technologies", "settings": "25 uM ATP concentration; read-out: MELK IC50 as determined by Z′-LYTE biochemical assay", "protocol": "The invention also provides methods for inhibiting MELK, comprising contacting MELK with a compound of the invention in an amount effective to inhibit MELK. In certain embodiments, the method is conducted in vitro. In certain embodiments, the method is conducted in vivo. Inhibition of MELK can be determined by the Z′-LYTE® biochemical assay from Life Technologies (Life Technologies Z′-LYTE® Screening Protocol and Assay Conditions, June 2012, incorporated herein by reference).\nGenerally, IC50 against MELK was determined by Z′-LYTE® biochemical assay and are measured in nM at 25 uM ATP concentration.", "units": {"IC50": "nM"}, "values": [{"molecule": "O=c1ccc2cnc3ccc(-c4cc(Cl)c(O)c(Cl)c4)cc3c2n1-c1ccc(N2CCNCC2)c(C(F)(F)F)c1", "note": "[Compound 01-045]", "IC50": 7.63}, {"molecule": "CC(=O)N1CCN(c2ccc(-n3c(=O)ccc4cnc5ccc(-c6cc(Cl)c(O)c(Cl)c6)cc5c43)cc2C(F)(F)F)CC1", "note": "[Compound 01-071]", "IC50": 294}, {"molecule": "CN(C)C[C@H]1CC[C@H](n2c(=O)ccc3cnc4ccc(-c5cc(Cl)c(O)c(Cl)c5)cc4c32)CC1", "note": "[Compound 01-087, 9-(3,5-dichloro-4-hydroxyphenyl)-1-(trans-4-((dimethylamino)methyl)cyclohexyl)benzo-[h][1,6]naphthyridin-2(1H)-one]", "IC50": 9.6}, {"molecule": "O=C1NCc2cnc3ccc(-c4cc(Cl)c(O)c(Cl)c4)cc3c2N1c1ccc(N2CCNCC2)c(C(F)(F)F)c1", "note": "[Compound 01-088]", "IC50": 5.48}, {"molecule": "CN(C)C[C@H]1CC[C@H](N2C(=O)NCc3cnc4ccc(-c5cc(Cl)c(O)c(Cl)c5)cc4c32)CC1", "note": "[Compound 01-091, 9-(3,5-dichloro-4-hydroxyphenyl)-1-(trans-4-((dimethylamino)methyl)cyclohexyl)-3,4-dihydropyrimido[5,4-c]quinolin-2(1H)-one]", "IC50": 10.5}, {"molecule": "O=c1ccc2cnc3ccc(-c4cccc(O)c4)cc3c2n1-c1ccc(N2CCNCC2)c(C(F)(F)F)c1", "note": "[Compound 01-092]", "IC50": 146}, {"molecule": "O=C1NCc2cnc3ccc(-c4cc(Cl)c(O)c(Cl)c4)cc3c2N1c1ccc(N2CCNCC2)cc1", "note": "[Compound 01-100]", "IC50": 2.16}, {"molecule": "O=c1ccc2cnc3ccc(-c4ccc(CO)cc4)cc3c2n1-c1ccc(N2CCNCC2)c(C(F)(F)F)c1", "note": "[Compound 01-101]", "IC50": 119}, {"molecule": "CN(C)C[C@H]1CC[C@H](N2C(=O)NCc3cnc4ccc(-c5ccc(NS(C)(=O)=O)cc5)cc4c32)CC1", "note": "[Compound 01-131]", "IC50": 4990}, {"molecule": "CN(C)Cc1ccc(N2C(=O)NCc3cnc4ccc(-c5cc(Cl)c(O)c(Cl)c5)cc4c32)cc1", "note": "[Compound 01-144]", "IC50": 9.4}, {"molecule": "CN(C)CC1CCC(CN2C(=O)NCc3cnc4ccc(-c5cc(Cl)c(O)c(Cl)c5)cc4c32)CC1", "note": "(stereo not drawn) [Compound 02-020]", "IC50": 404}, {"molecule": "CN(C)C[C@H]1CC[C@H](n2c(=O)[nH]c3cnc4ccc(-c5cc(Cl)c(O)c(Cl)c5)cc4c32)CC1", "note": "[Compound 02-022, 8-(3,5-dichloro-4-hydroxyphenyl)-1-(trans-4-((dimethylamino)methyl)cyclohexyl)-1,3-dihydro-2H-imidazo[4,5-c]quinolin-2-one]", "IC50": 1.85}, {"molecule": "CN1CCC(CN2C(=O)NCc3cnc4ccc(-c5cc(Cl)c(O)c(Cl)c5)cc4c32)CC1", "note": "[Compound 02-029]", "IC50": 386}, {"molecule": "CN(C)C[C@H]1CC[C@H](n2c(=O)n(C)c3cnc4ccc(-c5cc(Cl)c(O)c(Cl)c5)cc4c32)CC1", "note": "[Compound 02-084, 8-(3,5-dichloro-4-hydroxyphenyl)-1-(trans-4-((dimethylamino)methyl)cyclohexyl)-3-methyl-1,3-dihydro-2H-imidazo[4,5-c]quinolin-2-one]", "IC50": 2.16}, {"molecule": "CN(C)C[C@H]1CC[C@H](N2C(=O)N(C)Cc3cnc4ccc(-c5cc(Cl)c(O)c(Cl)c5)cc4c32)CC1", "note": "[Compound 02-095, 9-(3,5-dichloro-4-hydroxyphenyl)-1-(trans-4-((dimethylamino)methyl)cyclohexyl)-3-methyl-3,4-dihydropyrimido[5,4-c]quinolin-2(1H)-one]", "IC50": 27.1}, {"molecule": "CN(C)C[C@H]1CC[C@H](N2C(=O)N(C)Cc3cnc4ccc(-c5cc(Cl)c(O)c(Cl)c5)nc4c32)CC1", "note": "[Compound 02-096]", "IC50": 2.8}]}]}
